# Measured values as given in patent US20110230481A2, “DERIVATIVES OF TETRABROMOBENZIMIDAZOLE, A PROCESS FOR THE PREPARATION THEREOF, A PHARMACEUTICAL COMPOSITION COMPRISING THE SAME, A METHOD OF USING THE SAME, A METHOD FOR MODULATING OR REGULATING SERINE/THREONINE KINASES, AND SERINE/THREONINE KINASES MODULATING AGENT” (SELVITA S.A., priority 2009, published 2011).
# Legend:
# Experiment in all cases: KINOMEscan Max
# Assay type in all cases: binding
# CAMK2B = molecular target: T1, CAMK2B (Homo sapiens, UniProt Q13554)
# T1 construct: purchased Ambit Kinomescan (contract screening)
# In short: (§1)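 Compound displacement of DNA-tagged kinase from immobilized active-site ligand; qPCR of tag as read-out.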
# PIK3CA(H1047L) = molecular target: T2, PIK3CA(H1047L) (Homo sapiens, UniProt P42336, H1047L)
# T2 construct: DNA tag (qPCR read-out)
# In short: as §1
# TNIK = molecular target: T3, TNIK (Homo sapiens, UniProt Q9UKE5)
# T3 construct: purchased Ambit Kinomescan (contract screening service)
# In short: as §1
# PIK3CG = molecular target: T4, PIK3CG (Homo sapiens, UniProt P48736)
# T4 construct: purchased Ambit Kinomescan (contract screening)
# In short: as §1
# LATS1 = molecular target: T5, LATS1 (Homo sapiens, UniProt O95835)
# T5 construct: purchased Ambit Kinomescan (contract panel)
# In short: as §1
# VEGFR2 = molecular target: T6, VEGFR2 (Homo sapiens, UniProt P35968)
# T6 construct: purchased Ambit Kinomescan (contract screening)
# In short: as §1
# TAOK1 = molecular target: T7, TAOK1 (Homo sapiens, UniProt Q7L7X3)
# T7 construct: DNA tag (qPCR read-out)
# T7 sequence (Q7L7X3 whole entry): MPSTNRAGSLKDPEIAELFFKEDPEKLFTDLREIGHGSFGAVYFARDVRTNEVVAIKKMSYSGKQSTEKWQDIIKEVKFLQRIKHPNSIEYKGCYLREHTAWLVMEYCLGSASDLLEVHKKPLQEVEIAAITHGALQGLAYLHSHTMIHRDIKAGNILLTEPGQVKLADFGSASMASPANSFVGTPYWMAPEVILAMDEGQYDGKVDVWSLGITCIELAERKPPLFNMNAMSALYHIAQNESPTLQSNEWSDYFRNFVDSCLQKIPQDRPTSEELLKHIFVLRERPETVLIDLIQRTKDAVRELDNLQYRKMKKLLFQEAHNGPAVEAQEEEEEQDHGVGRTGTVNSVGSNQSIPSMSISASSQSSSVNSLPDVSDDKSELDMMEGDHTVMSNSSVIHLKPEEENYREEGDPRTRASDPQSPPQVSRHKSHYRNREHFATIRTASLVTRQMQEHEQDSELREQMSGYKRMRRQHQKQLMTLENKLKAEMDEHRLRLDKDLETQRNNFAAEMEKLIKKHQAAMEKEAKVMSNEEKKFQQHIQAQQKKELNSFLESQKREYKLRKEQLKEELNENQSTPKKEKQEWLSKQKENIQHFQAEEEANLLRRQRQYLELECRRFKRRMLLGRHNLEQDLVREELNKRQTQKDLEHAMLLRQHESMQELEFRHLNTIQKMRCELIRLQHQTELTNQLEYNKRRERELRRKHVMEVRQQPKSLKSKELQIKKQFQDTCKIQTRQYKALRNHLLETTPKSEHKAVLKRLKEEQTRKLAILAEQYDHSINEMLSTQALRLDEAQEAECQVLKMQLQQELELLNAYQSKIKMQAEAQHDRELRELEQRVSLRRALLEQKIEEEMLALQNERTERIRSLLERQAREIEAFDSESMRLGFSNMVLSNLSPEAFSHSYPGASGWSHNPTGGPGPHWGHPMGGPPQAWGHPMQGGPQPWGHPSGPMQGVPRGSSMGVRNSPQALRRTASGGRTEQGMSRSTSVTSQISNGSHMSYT
# In short: as §1
# LATS2 = molecular target: T8, LATS2 (Homo sapiens, UniProt Q9NRM7); conditions: 1 μM
# T8 construct: purchased Ambit (KINOMEscan Max service)
# In short: as §1
# CAMK2G = molecular target: T9, CAMK2G (Homo sapiens, UniProt Q13555)
# T9 construct: DNA tag (qPCR label); purchased Ambit Kinomescan (contract screening)
# In short: as §1
# CAMK1D = molecular target: T10, CAMK1D (Homo sapiens, UniProt Q8IU85)
# T10 construct: DNA tag (qPCR label); purchased Ambit Kinomescan (contract screening)
# In short: as §1
# CDK9 = molecular target: T11, CDK9 (Homo sapiens, UniProt P50750)
# T11 construct: DNA tag (qPCR read-out)
# T11 sequence (P50750 whole entry): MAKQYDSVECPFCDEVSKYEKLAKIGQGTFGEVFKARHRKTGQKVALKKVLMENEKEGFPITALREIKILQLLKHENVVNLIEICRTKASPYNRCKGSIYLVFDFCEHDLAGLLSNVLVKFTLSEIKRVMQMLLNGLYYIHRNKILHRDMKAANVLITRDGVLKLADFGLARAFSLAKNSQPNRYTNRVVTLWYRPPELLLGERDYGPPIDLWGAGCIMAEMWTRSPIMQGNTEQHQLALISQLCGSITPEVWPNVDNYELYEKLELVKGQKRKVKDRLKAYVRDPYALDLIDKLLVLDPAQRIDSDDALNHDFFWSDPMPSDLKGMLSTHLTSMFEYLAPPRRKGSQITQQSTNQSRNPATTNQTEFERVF
# In short: as §1
# IKK-beta = molecular target: T12, IKK-beta (Homo sapiens, UniProt O14920)
# T12 construct: DNA tag (qPCR read-out)
# In short: as §1
# MLK2 = MLK2 (Homo sapiens, UniProt Q02779)
# Chain of MLK2 (Q02779 whole entry): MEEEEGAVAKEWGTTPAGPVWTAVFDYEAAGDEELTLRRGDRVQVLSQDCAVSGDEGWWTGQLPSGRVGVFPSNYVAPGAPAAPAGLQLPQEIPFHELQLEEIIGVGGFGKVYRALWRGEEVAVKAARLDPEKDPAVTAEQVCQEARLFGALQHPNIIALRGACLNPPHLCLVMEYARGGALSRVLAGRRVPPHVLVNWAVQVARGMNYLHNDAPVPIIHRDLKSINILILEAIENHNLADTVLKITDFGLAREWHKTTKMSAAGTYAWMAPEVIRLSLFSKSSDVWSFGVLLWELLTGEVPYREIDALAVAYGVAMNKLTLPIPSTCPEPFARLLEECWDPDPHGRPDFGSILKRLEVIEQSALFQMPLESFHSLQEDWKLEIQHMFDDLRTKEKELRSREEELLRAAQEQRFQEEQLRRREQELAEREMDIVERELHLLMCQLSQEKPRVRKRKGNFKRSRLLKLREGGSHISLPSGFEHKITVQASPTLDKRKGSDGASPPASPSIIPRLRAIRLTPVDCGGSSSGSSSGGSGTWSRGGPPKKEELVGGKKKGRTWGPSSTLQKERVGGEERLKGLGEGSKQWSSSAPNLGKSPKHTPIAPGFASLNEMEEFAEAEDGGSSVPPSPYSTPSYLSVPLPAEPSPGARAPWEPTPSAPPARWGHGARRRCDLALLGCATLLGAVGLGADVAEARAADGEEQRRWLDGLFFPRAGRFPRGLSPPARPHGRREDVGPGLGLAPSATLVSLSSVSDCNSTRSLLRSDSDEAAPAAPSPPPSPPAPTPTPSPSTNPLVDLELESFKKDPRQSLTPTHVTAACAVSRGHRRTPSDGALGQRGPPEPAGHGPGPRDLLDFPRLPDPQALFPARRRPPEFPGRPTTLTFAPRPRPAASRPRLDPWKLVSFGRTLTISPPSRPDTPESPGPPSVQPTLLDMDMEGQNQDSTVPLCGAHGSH
# In short: as §1
# PKAC-beta = molecular target: T13, PKAC-beta (Homo sapiens, UniProt P22694)
# T13 construct: purchased Ambit (KINOMEscan Max service)
# In short: as §1
# S6K1 = S6K1 (Homo sapiens, UniProt P23443)
# In short: as §1
# MUSK = molecular target: T14, MUSK (Homo sapiens, UniProt O15146)
# T14 construct: purchased Ambit Kinomescan (contract screening)
# In short: as §1
# PIK3CD = molecular target: T15, PIK3CD (Homo sapiens, UniProt O00329)
# T15 construct: DNA tag (qPCR read-out)
# In short: as §1
# EPHB3 = molecular target: T16, EPHB3 (Homo sapiens, UniProt P54753)
# T16 construct: DNA tag (qPCR read-out)
# In short: as §1
# p38-beta = p38-beta (Homo sapiens, UniProt Q15759)
# Chain of p38-beta (Q15759 whole entry): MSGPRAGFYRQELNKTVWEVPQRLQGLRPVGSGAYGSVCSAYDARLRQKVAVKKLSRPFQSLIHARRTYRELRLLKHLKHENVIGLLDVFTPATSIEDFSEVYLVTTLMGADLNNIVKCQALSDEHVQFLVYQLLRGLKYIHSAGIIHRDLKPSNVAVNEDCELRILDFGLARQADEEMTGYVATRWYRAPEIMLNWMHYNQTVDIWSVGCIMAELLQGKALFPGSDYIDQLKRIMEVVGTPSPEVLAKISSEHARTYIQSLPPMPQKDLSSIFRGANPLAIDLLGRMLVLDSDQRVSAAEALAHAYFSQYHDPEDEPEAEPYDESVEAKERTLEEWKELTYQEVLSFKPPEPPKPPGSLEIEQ
# In short: as §1
# p38-gamma = p38-gamma (Homo sapiens, UniProt P53778)
# In short: as §1
# CDK11 = CDK11 (Homo sapiens, UniProt Q9BWU1); conditions: 1 μM
# In short: as §1
# NEK9 = NEK9 (Homo sapiens, UniProt Q8TD19)
# Chain of NEK9 (Q8TD19 whole entry): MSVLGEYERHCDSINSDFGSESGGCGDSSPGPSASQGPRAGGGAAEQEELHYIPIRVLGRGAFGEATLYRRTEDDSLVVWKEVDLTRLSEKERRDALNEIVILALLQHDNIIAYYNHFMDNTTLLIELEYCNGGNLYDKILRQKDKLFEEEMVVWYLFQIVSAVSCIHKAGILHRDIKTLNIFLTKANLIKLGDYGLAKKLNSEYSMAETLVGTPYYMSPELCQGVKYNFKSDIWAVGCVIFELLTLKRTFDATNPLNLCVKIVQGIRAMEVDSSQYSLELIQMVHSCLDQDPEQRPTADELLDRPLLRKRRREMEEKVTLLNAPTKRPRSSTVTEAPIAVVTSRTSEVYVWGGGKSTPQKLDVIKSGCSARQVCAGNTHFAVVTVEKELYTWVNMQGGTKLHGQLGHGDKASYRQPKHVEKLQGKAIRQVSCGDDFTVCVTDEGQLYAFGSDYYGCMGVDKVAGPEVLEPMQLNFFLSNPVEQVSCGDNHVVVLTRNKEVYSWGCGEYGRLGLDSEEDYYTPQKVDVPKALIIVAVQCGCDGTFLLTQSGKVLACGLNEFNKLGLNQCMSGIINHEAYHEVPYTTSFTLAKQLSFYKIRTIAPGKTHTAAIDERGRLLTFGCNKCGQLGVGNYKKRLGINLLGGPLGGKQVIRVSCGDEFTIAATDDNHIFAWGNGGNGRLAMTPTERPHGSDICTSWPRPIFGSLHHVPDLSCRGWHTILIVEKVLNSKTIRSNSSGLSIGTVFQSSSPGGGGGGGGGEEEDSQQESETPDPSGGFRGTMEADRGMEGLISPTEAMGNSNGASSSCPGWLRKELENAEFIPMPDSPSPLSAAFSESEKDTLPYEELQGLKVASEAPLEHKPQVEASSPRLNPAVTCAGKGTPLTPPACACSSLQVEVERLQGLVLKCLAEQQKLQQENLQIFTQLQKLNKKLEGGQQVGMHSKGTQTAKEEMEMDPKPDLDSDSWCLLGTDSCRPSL
# In short: as §1
# ASK1 = molecular target: T17, ASK1 (Homo sapiens, UniProt Q99683)
# T17 construct: DNA tag (qPCR label); purchased Ambit Kinomescan (contract screening)
# T17 sequence (Q99683 whole entry): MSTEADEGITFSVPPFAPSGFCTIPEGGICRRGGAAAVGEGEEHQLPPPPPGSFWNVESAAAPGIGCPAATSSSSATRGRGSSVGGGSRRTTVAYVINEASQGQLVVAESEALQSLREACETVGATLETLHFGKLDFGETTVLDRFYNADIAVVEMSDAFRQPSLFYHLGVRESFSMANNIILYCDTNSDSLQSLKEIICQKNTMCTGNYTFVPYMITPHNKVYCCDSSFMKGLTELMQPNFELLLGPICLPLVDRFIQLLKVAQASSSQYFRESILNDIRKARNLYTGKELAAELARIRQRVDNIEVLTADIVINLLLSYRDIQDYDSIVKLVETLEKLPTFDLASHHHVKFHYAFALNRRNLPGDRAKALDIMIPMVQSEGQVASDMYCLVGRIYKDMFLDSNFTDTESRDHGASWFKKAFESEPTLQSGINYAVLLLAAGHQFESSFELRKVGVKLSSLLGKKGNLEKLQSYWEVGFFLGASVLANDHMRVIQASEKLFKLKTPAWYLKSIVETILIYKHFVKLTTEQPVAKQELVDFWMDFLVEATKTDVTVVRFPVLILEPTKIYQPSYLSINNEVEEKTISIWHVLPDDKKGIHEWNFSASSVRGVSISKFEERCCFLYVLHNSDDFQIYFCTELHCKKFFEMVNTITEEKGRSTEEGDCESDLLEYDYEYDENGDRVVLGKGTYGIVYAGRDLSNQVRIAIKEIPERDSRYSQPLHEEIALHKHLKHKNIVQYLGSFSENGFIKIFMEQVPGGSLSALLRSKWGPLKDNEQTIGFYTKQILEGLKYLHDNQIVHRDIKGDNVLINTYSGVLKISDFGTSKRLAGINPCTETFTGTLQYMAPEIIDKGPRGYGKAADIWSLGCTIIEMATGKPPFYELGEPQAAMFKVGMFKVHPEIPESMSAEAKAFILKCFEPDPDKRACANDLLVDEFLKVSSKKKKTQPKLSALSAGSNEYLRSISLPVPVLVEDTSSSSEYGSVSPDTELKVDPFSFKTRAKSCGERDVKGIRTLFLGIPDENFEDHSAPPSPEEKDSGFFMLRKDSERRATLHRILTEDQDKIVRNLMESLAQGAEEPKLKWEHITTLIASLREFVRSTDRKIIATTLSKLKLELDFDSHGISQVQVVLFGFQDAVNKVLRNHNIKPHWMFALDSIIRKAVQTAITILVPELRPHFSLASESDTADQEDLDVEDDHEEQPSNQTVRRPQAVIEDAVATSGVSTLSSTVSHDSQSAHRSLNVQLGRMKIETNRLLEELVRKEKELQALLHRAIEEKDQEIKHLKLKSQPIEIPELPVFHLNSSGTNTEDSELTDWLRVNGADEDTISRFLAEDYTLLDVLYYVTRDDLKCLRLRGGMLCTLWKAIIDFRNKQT
# In short: as §1
# DCAMKL2 = molecular target: T18, DCAMKL2 (Homo sapiens, UniProt Q8N568)
# T18 construct: purchased Ambit (KINOMEscan Max panel service)
# In short: as §1
# PHKG2 = PHKG2 (Homo sapiens, UniProt P15735)
# In short: as §1
# [1] = molecular target: T19, RSK1(Kin.Dom.2-C-terminal) (Homo sapiens, UniProt Q15418)
# T19 construct: RSK1(Kin.Dom.2-C-terminal); purchased Ambit Kinomescan (contract screening)
# In short: as §1
# [2] = molecular target: T20, ABL1(F317I)-nonphosphorylated (Homo sapiens, UniProt P00519, F317I)
# T20 construct: purchased Ambit (KINOMEscan Max service)
# In short: as §1
# BMPR2 = BMPR2 (Homo sapiens, UniProt Q13873); conditions: 1 μM
# In short: as §1
# [3] = molecular target: ABL1(F317L)-phosphorylated (Homo sapiens, UniProt P00519, F317L)
# In short: as §1
compound,measurement,setting,value
"NCCCNc1nc2c(Br)c(Br)c(Br)c(Br)c2[nH]1 [Compound 11, N-(3-aminopropyl)-4,5,6,7-tetrabromo-1H-benzo[d]imidazol-2-amine]",remaining binding at 1 µM,CAMK2B,97%
same,remaining binding at 1 µM,PIK3CA(H1047L),100%
same,remaining binding at 1 µM,TNIK,100%
same,remaining binding at 1 µM,PIK3CG,96%
same,remaining binding at 1 µM,LATS1,100%
same,remaining binding at 1 µM,VEGFR2,96%
same,remaining binding at 1 µM,TAOK1,100%
same,% binding,LATS2,70%
same,remaining binding at 1 µM,CAMK2G,100%
same,remaining binding at 1 µM,CAMK1D,100%
same,remaining binding at 1 µM,CDK9,90%
same,remaining binding at 1 µM,IKK-beta,56%
same,remaining binding at 1 µM,MLK2,100%
same,remaining binding at 1 µM,PKAC-beta,84%
same,remaining binding at 1 µM,S6K1,79%
same,remaining binding at 1 µM,MUSK,97%
same,remaining binding at 1 µM,PIK3CD,100%
same,remaining binding at 1 µM,EPHB3,91%
same,remaining binding at 1 µM,p38-beta,95%
same,remaining binding at 1 µM,p38-gamma,76%
same,% binding,CDK11,74%
same,remaining binding at 1 µM,NEK9,95%
same,remaining binding at 1 µM,ASK1,100%
same,remaining binding at 1 µM,DCAMKL2,100%
same,remaining binding at 1 µM,PHKG2,75%
same,remaining binding at 1 µM,[1],96%
same,remaining binding at 1 µM,[2],64%
same,% binding,BMPR2,99%
same,remaining binding at 1 µM,[3],100%
